“And” between values parts separate entries of the source, which are not always exact repeats. Equal values may be shown once. Read-outs that look alike come from different tables or passages of the source.
Tests used:
[1] = tested on: P. falciparum male gametogenesis; assay: Phenotypic immunofluorescence assay of male gamete formation; type: cell-based, Plasmodium falciparum; conditions: 10 µM, 24 h treatment, 0–20 min post induction
Procedure: In vitro evolution followed by whole-genome analysis is the primary approach currently used for understanding how compounds act in malaria parasites. As it is not currently feasible to generate resistant mutants to compounds that are only active in the gametocyte stage (resistance generation requires extensive rounds of replication in the presence of compound), phenotypic immunofluorescence assays were performed to evaluate compound activity on male gamete formation. Gametocytes treated with 10 µM of each compound were sampled at 0, 2, 3, 4, 6, 8, 10, and 20 min post induction of gamete formation before imaging (Fig. 4). Individual male cells were then extracted from the images and analysed for shape and haploid chromosome number/DNA content to quantitatively measure the progression of DNA replication (n = 198–668 cells) (Fig. 5a).
Day 14 gametocyte culture was divided into 4 ml aliquots and treated either with DMSO or 10 µM test compound. After 24 h, 500 µl aliquots of the non-activated gametocytes were fixed in an equal volume of 8% paraformaldehyde (PFA) warmed to 37 °C to generate Time = 0 min (t = 0) samples. Gamete formation was induced in the remainder of the cultures by cooling to RT and addition of 500 µl ookinete medium. At t = 2, 3, 4, 6, 8, 10, and 20 min 500 µl of culture was removed and immediately fixed in equal volume of 8% PFA at room temperature for 15 min. Fixed cells were diluted in PBS and allowed to settle onto poly-L-lysine-coated glass coverslips overnight. The next day, cells were washed in PBS, permeabilized in 0.1% Triton X-100 and blocked in PBS + 10% FBS. Cells were stained with mouse anti-alpha tubulin (Sigma) clone DM1A (1:500 dilution) and rabbit anti-Glycophorin A (Abcam) clone EPR8200 (1:1000 dilution). Staining was visualised with anti-mouse […] and anti-rabbit Alexa555 (Thermo-Fisher) both at 1:1000 dilution. Coverslips were mounted onto glass slides with VectaShield mountant (Vector Laboratories) containing 4′,6-diamidino-2-phenylindole (DAPI) to visualise cellular DNA. Cells were imaged at random (n = 195–668 cells per test compound) using a Nikon Ti-E widefield microscope using a × 100 objective lens and taken in 0.2 µm slice z-stack images to capture the whole cell. All images were converted to maximum intensity projections in NIS Elements v4.20 and all further image processing performed in ICY. Individual cells were manually selected and automatically extracted from each image using the Active Contours plugin gated to the tubulin staining. Using the ROI Statistics plugin, the following parameters were calculated for each cell and exported to MS Excel: Cell area, Cell roundness, Cell elongation, and Average intensity of blue channel (DNA). […] Outlier cells from the curve were all exflagellating (Supplementary Fig. 6). These two parameters were combined as a ratio of roundness:elongation to produce the parameter Cell shape. Cellular DNA content was estimated by multiplying the average pixel intensity of the blue channel (after subtracting the background intensity of an empty area in the same parent image) with the total cell area.

NF54 stage V gametocytes = assay: Gametocytocidal MitoTracker-based viability assay (SaLSSA); type: cell-based, Plasmodium falciparum NF54; conditions: for IC50: Plasmodium falciparum, NF54, 72h incubation, read-out: Pf Stage V GCT (mitotracker assay) IC50
Procedure: As another independent assessment of the metabolic viability of compound-treated stage V gametocytes, the Saponin-lysis Sexual Stage Assay (SaLSSA) was employed. A volume of 100 nl of test compounds were pre-dispensed in 384-well plates (781091-2B, Greiner) in 12-point dose response (25 µM to 1.41 × 10^−4 µM), prior to the addition of synchronous NF54 stage V gametocytes (40 µl at 0.70% gametocytaemia). Assay plates were then incubated for 72 h in a low oxygen environment (92% N2, 5% CO2, 3%O2) before a 10 µl MitoTracker Red CMXRos (2.5 µM) and saponin solution (0.13%w/v) was added. Plates were returned to 37 °C for 1 h to allow for complete red blood cell lysis, after which viable gametocytes were detected using an Operetta high-content imaging system. Analysis was performed using the Harmony package software, with potency calculated relative to puromycin (positive control) and DMSO (negative control).

[2] = tested on: P. berghei-ANKA-GFP-Luc-SMCON sporozoites in HepG2-A16-CD81EGFP cells; assay: P. berghei liver stage assay (luciferase sporozoite HepG2 invasion); type: cell-based; conditions: Plasmodium berghei
Procedure: Compound inhibition of P. berghei sporozoite liver infection was assessed in a high-throughput luciferase assay. 1536-well plates (789173-F, Greiner Bio-One) were pre-seeded with 5 µl HepG2-A16-CD81^EGFP cells grown in DMEM (11965–092, Invitrogen) containing 10% FBS (35–011-CV, Corning) and 1× Pen Strep Glutamine (10378–016, Invitrogen). Then, 50 nl of compound in DMSO was dispensed in 12-point serial dilution dose-response format (50 µM to 2.82 × 10^−4 µM), and incubated overnight.A. stephensi mosquitoes infected with P. berghei-ANKA-GFP-Luc-SMCON (Pb-Luc)[41] sporozoites bearing the antifolate-resistance-conferring Toxoplasma gondii dihydrofolate reductase-thymidylate synthase selectable marker, pyR2. After dissection, ~1000 sporozoites in 5 µl screening media (DMEM, 11965–092, Invitrogen; 5% FBS, 35–011-CV, Corning; 5x Pen Strep Glutamine, 10378–016, Invitrogen) were added per well and incubated for 48 h (37 °C, 5% CO2). Bioluminescence was measured using an EnVision microplate reader (Perkin Elmer), following the addition of 2 µl per well of Bright-Glo™ (Promega). Compound toxicity against HepG2 cells was determined in parallel by measuring cellular ATP levels reported by luciferase activity. Methods were similar to the P. berghei liver stage assay, except for the addition of CellTiter-Glo® (Promega) as a detection reagent. DMSO (0.5%) was used as a negative control in both assays, with Atovaquone (5 µM) and Puromycin (10 µM) acting as positive controls in the P. berghei and toxicity assays, respectively.

[3] = tested on: P. falciparum female gametocytes; assay: Pf DGFA wash-out format, female readout; type: cell-based; conditions: Plasmodium falciparum; 48h preincubation/wash-out
[4] = tested on: P. falciparum male gametocytes; assay: Pf DGFA wash-out format, male readout; type: cell-based; conditions: Plasmodium falciparum; 48h preincubation/wash-out
[5] = tested on: P. berghei 507 strain in mice, transmission to Anopheles stephensi; assay: P. berghei mosquito (direct) feeding assay in infected mice; type: in vivo, Plasmodium berghei; conditions: for Infection Prevalence (%) / Mean oocysts per mosquito: per mouse
Procedure: Six- to eight-week female T0 mice were treated with phenylhydrazine 3 days prior to intraperitoneal (IP) inoculation with 100 µl of mouse blood infected with the constitutively GFP expressing P. berghei 507 strain[39]. On day 3 after infection, thin blood smears were taken from tail blood to quantify parasitaemia and gametocytaemia. […] […] Twenty-four hours after feeding, unfed mosquitoes were removed and remaining mosquitoes maintained for a further 9 days on sucrose solution. Mosquito midguts were then dissected, imaged and oocysts quantified by semi-automated computer analysis.

[6] = 48h incubation, read-out: Pb Liver invasion assay IC50
[7] = Dose 30min prior, listed as DDD881

Row | Compound | IC50 (NF54 stage V gametocytes) | IC50 [2, 6] | IC50 [3] | IC50 [4] | further results
1 | O=C(CCl)Nc1ccc(Br)cc1 [BPCA, N-(4-bromophenyl)-2-chloroacetamide] | – | – | – | – | phenotype of male gametogenesis (IFA) [1]: rounded up after induction but most cells did not replicate their DNA and none exflagellated
2 | CC(=O)c1c(C)nn(CC(=O)Nc2ccc(Br)cc2)c1C [DDD01027599] | 5.55 µM | 7.48 µM | 3.11 µM | 0.97 µM | –
3 | O=S(=O)(NCC1(O)CCOc2ccccc21)c1ccccc1F (stereo not shown) [DDD01028073] | > 25 µM | > 50 µM | > 12.5 µM | > 12.5 µM | –
4 | Cc1ccc(S(=O)(=O)NCC2(O)CCOc3ccccc32)s1 (stereo not shown) [DDD01028074] | > 25 µM | > 50 µM | > 12.5 µM | > 12.5 µM | –
5 | O=S(=O)(NCC1(O)CCOc2ccccc21)c1ccc(Cl)s1 (stereo not shown) [DDD01028075] | > 25 µM | > 50 µM | > 12.5 µM | > 12.5 µM | –
6 | O=S(=O)(NCC1(O)CCOc2ccccc21)c1ccccc1Br (stereo not shown) [DDD01028076] | > 25 µM | > 50 µM | > 12.5 µM | > 12.5 µM | –
7 | COc1cccc(-n2ccc3nc(N4CCCC4)ncc3c2=O)c1 [DDD01034957] | > 25 µM | – | – | – | –
8 | O=S(=O)(NCC1(O)CCOc2ccccc21)c1cccs1 (stereo not shown) [DDD01035879] | > 25 µM | > 50 µM | > 12.5 µM | > 12.5 µM | –
9 | O=S(=O)(NCC1(O)CCOc2ccccc21)c1ccc(Br)s1 (stereo not shown) [DDD01035881] | > 25 µM | – | > 12.5 µM | > 12.5 µM | phenotype of male gametogenesis (IFA) [1]: only a few cells replicated their DNA and none exflagellated; blockade on oocyst intensity ([5]; 50 mg kg^−1 IP, 30 min before the feed): 99.6%; transmission blocking efficacy at the oocyst level ([5]; 50 mg kg^−1 IP, 24 h before mosquito feeding): no transmission blocking efficacy; suppression of gametocytaemia compared to vehicle-only controls ([5]; 50 mg kg^−1 IP, 24 h exposure): not impacted; effect on asexual parasitaemia ([5]; 50 mg kg^−1 IP, single dose): not impacted; Infection Prevalence (%) [5, 7]: 54.35% and 23.08%; Mean oocysts per mosquito [5, 7]: 1.43 and 0.60; Infection Prevalence (%) ([5]; Dose 24hr prior to feeding): 100%; Mean oocysts per mosquito ([5]; Dose 24hr prior to feeding, listed as DDD881): 330.22 and 190.61
10 | Cc1cccc(NC(=O)c2cccc(OCc3nnnn3C)c2)n1 [DDD01038630] | – | > 50 µM | – | – | –
11 | CC(c1ccco1)N(C(=O)CNc1ccc(C#N)cc1)C1CC1 (stereo not shown) [DDD01062645] | > 25 µM | – | > 12.5 µM | > 12.5 µM | –
12 | Cc1ccc(CN(c2cc(C)nc3nc(C(F)(F)F)nn23)C2CC2)cc1 [DDD01063654] | > 10 µM | 15.3 µM | – | – | –
13 | Cc1cc(C)c(CNCC(O)c2ccc(F)c(F)c2)c(C)c1.Cl (stereo not shown) [DDD01065539] | – | 17.2 µM | – | – | –
14 | CC(NCC1CCN(CCO)CC1)c1ccc(OC(F)(F)F)cc1 (stereo not shown) [DDD01073716] | 7.07 µM | 15.5 µM | 1.22 µM | 1.08 µM | –
15 | CN(Cc1cccc(F)c1)C(=O)CS(=O)(=O)Cc1c(Cl)cccc1Cl [DDD01077188] | – | 23.1 µM | – | – | –
16 | CN1CCC(NCC(O)c2cccc(OCc3ccccc3)c2)CC1 (stereo not shown) [DDD01079164] | 4.97 µM | 16.5 µM | 1.07 µM | 1.3 µM | –
17 | CNc1cc(C)nc(NC2CCCN(C3Cc4ccccc4C3)C2)n1 (stereo not shown) [DDD01243506] | – | – | – | – | IC50 ([2]; read-out: Pb liver IC50): 0.52 µM
18 | CC(c1cccs1)N(C)Cc1cnc(-c2ccccn2)nc1 (stereo not shown) [DDD01246628] | 0.2 µM | 13.3 µM | – | – | –
19 | CCCn1nccc1C(=O)N1CCN(C2CCc3ccccc3C2)CC1 (stereo not shown) [DDD01251134] | – | 20.7 µM | – | – | –
20 | Cc1nn(C)c(Oc2ccc(Cl)cc2)c1CN1CCC(CN)C1 (stereo not shown) [DDD01254274] | > 12.5 µM | > 50 µM | > 25 µM | 2.84 µM | –
21 | CCc1ccc(C2c3nc[nH]c3CCN2Cc2nccn2CC)nc1 (stereo not shown) [DDD01254473] | 0.08 µM | > 50 µM | 0.71 µM | 5.74 µM | activity in the mitotracker assay (NF54 stage V gametocytes; profiling): submicromolar
22 | CCOc1ccc2ccccc2c1CNCC1CCNCC1.Cl.Cl [DDD01255740] | 3.57 µM | 13.2 µM | 1.65 µM | 0.67 µM | –
23 | Cc1ccc(-c2cc(C(=O)NCCC3=CCCCC3)[nH]n2)o1 [DDD01255968] | > 25 µM | 17.6 µM | > 12.5 µM | 2.19 µM | phenotype of male gametogenesis (IFA) [1]: did not replicate their DNA and remained with 1n genome copies
24 | CCn1ncc(Br)c1CN(C)S(=O)(=O)c1ccc(C)cc1 [DDD01259521] | > 25 µM | 8.64 µM | – | – | –
25 | c1cnnc(N2CCCC2CNc2ncnc3sccc23)c1 (stereo not shown) [DDD01299704] | – | 16.4 µM | – | – | –
